# Laboratory results taken from patent US20250382305A1 (PTC THERAPEUTICS, INC., priority 2022, published 2025).
# Assays:
# ATXN3 pre-mRNA = assay: RT-qPCR Assay to Quantify Exon 4 Skipping in ATXN3 pre-mRNA in Cells; format: cell-based; conditions: percent exon 4 skipping in ATXN3 pre-mRNA, RT-qPCR of cell lysates; average IC50
# Experimental: RT-qPCR Assay to Quantify Exon 4 Skipping in ATXN3 pre-mRNA in Cells
# (§1) Test compounds were serially diluted 3.16-fold in 100% DMSO to generate a 7-point concentration curve. Aliquots of 0.5 μL of diluted compounds were transferred to a 96-well flat bottom plate by a liquid handler. An aliquot of 0.5 μL DMSO was also transferred to separate wells and used as controls. Duplicate samples were set up for each compound concentration and for the DMSO control.
# Cells were thawed and incubated in cell culture media (DMEM, 10% FBS, and 1% antibiotic cocktail) for 72 h. Cells were trypsinized, counted, and re-suspended to a concentration of 100,000 cells/mL in cell culture media. A 100 μL aliquot of the cell suspensions were plated at 10,000 cells per well in the compound containing 96 well microtiter plate and incubated for in a cell culture incubator (37° C., 5% CO2, 100% relative humidity).
# After 24 h, media was aspirated from the cells and 50 μL of the RCL2 lysis buffer (10 mM Tris-HCL pH 7.4, 150 mM NaCl, 0.33% IGEPAL® CA-630) was added to each well and incubated at RT for 1 min. Chilled nuclease free water (50 μL per well) was added and the plates were immediately transferred on ice. After 1 min on ice, plates were frozen at −80° C. overnight.
# Preparation of RT-qPCR Reaction Mixture:
# An aliquot of 2 μL/well of the cell lysates was transferred using the liquid handler to the Armadillo 384-Well PCR plate containing 8 μL/well of the RT-qPCR reaction mixture that was prepared as detailed above. The plates were then sealed with MicroAmp™ Optical Adhesive Film followed by spinning down for 1 min and placed in the CFX384 thermocycler (BioRad).
# The RT-qPCR was carried out at the following temperatures for the indicated time: • Step 1: 48° C. (30 min) • Step 2: 95° C. (10 min) • Step 3: 95° C. (15 sec) • Step 4: 60° C. (1 min); then, repeated Steps 3 and 4 for a total of 40 cycles.
# The percent exon 4 skipping was calculated for each dose of compound treatment using Equations 1 and 2.
# Data were fit to a dose response curve and the IC50 was interpolated using XLfit® statistical and curve fitting package.
# (§2) An average IC50>1 μM is indicated by one star (*), between >0.3 μM and ≤1 μM is indicated by two stars (**), between >0.03 μM and ≤0.3 μM is indicated by three stars (***), and ≤0.03 μM is indicated by four stars (****).
# [1] = test system: Total ATXN3 (tATXN3) protein; assay: Endogenous Total ATXN3 (tATXN3) Protein Assay (MSD immunoassay of cell lysates); format: cell-based; conditions: average IC50, total ATXN3 protein in cell lysate after 48 h with compound (Table 1)
# Experimental: Endogenous Total ATXN3 (tATXN3) Protein Assay
# Meso Scale Discovery (MSD) 96-well or 384-well plates were coated overnight at 4° C. with Ataxin 3 mouse monoclonal antibody (Invitrogen, MA3-082) at a concentration of 0.5 μg/mL in PBS (30 μL per well). Plates were then washed three times with 300 μL wash buffer (0.05% TWEEN®-20, polyethylene glycol sorbitan monolaurate, in PBS) and blocked (Meso Scale Diagnostics, R93BA-1; 5% BSA in PBS) for 2 h at RT with rotational shaking and then washed three times with wash buffer.
# as §1
# Cells were thawed and incubated in cell culture media (DMEM, 10% FBS, and 1% antibiotic cocktail) for 72 h. Cells were trypsinized, counted, and re-suspended to a concentration of 100,000 cells/mL in cell culture media. A 100 μL aliquot of the cell suspensions were plated at 10,000 cells per well in the compound containing 96 well microtiter plate and incubated for in a cell culture incubator (37° C., 5% CO2, 100% relative humidity). After 48 h, the medium was removed and 50-100 μL of lysis buffer (Meso Scale Diagnostics, R60TX-2) containing 1× halt protease inhibitor cocktail of (Thermo Scientific, Halt™ Protease Inhibitor Cocktail, 78430) per well was added to cells to provide a “cell lysate”. The plate was placed on a shaker at 4° C. for 30 minutes, then stored at −80° C.
# Cell lysate samples (25 μL) were transferred to the antibody-coated MSD plate and incubated overnight at 4° C. After removal of the lysates, the plate was washed three times with wash buffer, and 25 μL of Ataxin 3 recombinant rabbit monoclonal antibody (Invitrogen, #702788) secondary antibody (diluted to 0.25 μg/mL in 0.05% TWEEN®-20 in blocking buffer) was added to each well and incubated with shaking for 1-2 h at room temperature. Following incubation with the secondary antibody, the wells were rinsed with wash buffer and then 25 μL of Anti Rabbit Antibody Goat SULFO-TAG Labeled (Meso Scale Diagnostics, R32AB-1) detecting antibody (diluted to […] in 0.05% TWEEN®-20 in blocking buffer) was added to each well and incubated with shaking for 1 h at room temperature. After rinsing three times with wash buffer, 150 μL of Read Buffer T with surfactant (tris-based buffer containing tripropylamine, Meso Scale Diagnostics, R92TC-1) were added to each empty well, and the plate was imaged on a SI 6000 imager (MSD) according to manufacturers' instructions provided for 96- or 384-well plates.
# as §2
Substance,IC50 (ATXN3 pre-mRNA),IC50 [1]
"2-((2R,3R)-3-aminotetrahydrofuran-2-yl)-3-bromo-5-chloro-N-(thiophen-2-ylmethyl)thieno[3,2-b]pyridin-7-amine and 2-((2S,3S)-3-aminotetrahydrofuran-2-yl)-3-bromo-5-chloro-N-(thiophen-2-ylmethyl)thieno[3,2-b]pyridin-7-amine [Compound 151]",30 to 300 nM,30 to 300 nM
"2-((2R,3R,5R)-3-amino-5-methyltetrahydro-2H-pyran-2-yl)-3-bromo-5-chloro-N-(thiophen-2-ylmethyl)thieno[3,2-b]pyridin-7-amine and 2-((2S,3S,5S)-3-amino-5-methyltetrahydro-2H-pyran-2-yl)-3-bromo-5-chloro-N-(thiophen-2-ylmethyl)thieno[3,2-b]pyridin-7-amine [Compound 284]",30 to 300 nM,30 to 300 nM
"2-((2R,3S)-3-aminopiperidin-2-yl)-3-bromo-5-chloro-N-(thiophen-2-ylmethyl)thieno[3,2-b]pyridin-7-amine and 2-((2S,3R)-3-aminopiperidin-2-yl)-3-bromo-5-chloro-N-(thiophen-2-ylmethyl)thieno[3,2-b]pyridin-7-amine [Compound 46]",> 1000 nM,> 1000 nM
"2-((2R,3S)-3-aminotetrahydrofuran-2-yl)-3-bromo-5-chloro-N-(thiophen-2-ylmethyl)thieno[3,2-b]pyridin-7-amine and 2-((2S,3R)-3-aminotetrahydrofuran-2-yl)-3-bromo-5-chloro-N-(thiophen-2-ylmethyl)thieno[3,2-b]pyridin-7-amine [Compound 150]",30 to 300 nM,30 to 300 nM
"2-((3R,4R)-3-aminotetrahydro-2H-pyran-4-yl)-3-bromo-5-chloro-N-(thiophen-2-ylmethyl)thieno[3,2-b]pyridin-7-amine and 2-((3S,4S)-3-aminotetrahydro-2H-pyran-4-yl)-3-bromo-5-chloro-N-(thiophen-2-ylmethyl)thieno[3,2-b]pyridin-7-amine [Compound 146]",> 1000 nM,> 1000 nM
"2-((3R,4S)-3-aminotetrahydro-2H-pyran-4-yl)-3,5-dichloro-N-(furan-2-ylmethyl)thieno[3,2-b]pyridin-7-amine and 2-((3S,4R)-3-aminotetrahydro-2H-pyran-4-yl)-3,5-dichloro-N-(furan-2-ylmethyl)thieno[3,2-b]pyridin-7-amine [Compound 314]",30 to 300 nM,30 to 300 nM
"2-((3R,4S)-3-aminotetrahydro-2H-pyran-4-yl)-3-bromo-5-chloro-N-(furan-2-ylmethyl)thieno[3,2-b]pyridin-7-amine and 2-((3S,4R)-3-aminotetrahydro-2H-pyran-4-yl)-3-bromo-5-chloro-N-(furan-2-ylmethyl)thieno[3,2-b]pyridin-7-amine [Compound 316]",30 to 300 nM,30 to 300 nM
"2-((3R,4S)-3-aminotetrahydro-2H-pyran-4-yl)-5-chloro-3-(prop-1-yn-1-yl)-N-(thiophen-2-ylmethyl)thieno[3,2-b]pyridin-7-amine and 2-((3S,4R)-3-aminotetrahydro-2H-pyran-4-yl)-5-chloro-3-(prop-1-yn-1-yl)-N-(thiophen-2-ylmethyl)thieno[3,2-b]pyridin-7-amine [Compound 227]",≤ 30 nM,≤ 30 nM
"2-((3R,4S)-3-aminotetrahydro-2H-pyran-4-yl)-5-chloro-3-iodo-N-(thiophen-2-ylmethyl)thieno[3,2-b]pyridin-7-amine and 2-((3S,4R)-3-aminotetrahydro-2H-pyran-4-yl)-5-chloro-3-iodo-N-(thiophen-2-ylmethyl)thieno[3,2-b]pyridin-7-amine [Compound 275]",30 to 300 nM,30 to 300 nM
"2-((3R,4S)-3-aminotetrahydro-2H-pyran-4-yl)-5-chloro-7-((thiophen-2-ylmethyl)amino)thieno[3,2-b]pyridine-3-carbonitrile and 2-((3S,4R)-3-aminotetrahydro-2H-pyran-4-yl)-5-chloro-7-((thiophen-2-ylmethyl)amino)thieno[3,2-b]pyridine-3-carbonitrile [Compound 393]",≤ 30 nM,300 to 1000 nM
"2-((3R,4S)-3-aminotetrahydro-2H-pyran-4-yl)-5-chloro-N-(thiophen-2-ylmethyl)-3-vinylthieno[3,2-b]pyridin-7-amine and 2-((3S,4R)-3-aminotetrahydro-2H-pyran-4-yl)-5-chloro-N-(thiophen-2-ylmethyl)-3-vinylthieno[3,2-b]pyridin-7-amine [Compound 350]",30 to 300 nM,30 to 300 nM
"2-((3R,4S)-3-aminotetrahydro-2H-pyran-4-yl)-N-benzyl-3,5-dichlorothieno[3,2-b]pyridin-7-amine and 2-((3S,4R)-3-aminotetrahydro-2H-pyran-4-yl)-N-benzyl-3,5-dichlorothieno[3,2-b]pyridin-7-amine [Compound 388]",30 to 300 nM,30 to 300 nM
"2-((3R,4S)-4-aminotetrahydro-2H-pyran-3-yl)-3-bromo-5-chloro-N-(thiophen-2-ylmethyl)thieno[3,2-b]pyridin-7-amine and 2-((3S,4R)-4-aminotetrahydro-2H-pyran-3-yl)-3-bromo-5-chloro-N-(thiophen-2-ylmethyl)thieno[3,2-b]pyridin-7-amine [Compound 204]",≤ 30 nM,≤ 30 nM
"2-((4R,5S)-5-aminoazepan-4-yl)-3-bromo-5-chloro-N-(thiophen-2-ylmethyl)thieno[3,2-b]pyridin-7-amine and 2-((4S,5S)-5-aminoazepan-4-yl)-3-bromo-5-chloro-N-(thiophen-2-ylmethyl)thieno[3,2-b]pyridin-7-amine [Compound 148]",> 1000 nM,> 1000 nM
"3-bromo-5-chloro-2-((1R,2R)-2-(methylamino)cyclohexyl)-N-(thiophen-2-ylmethyl)thieno[3,2-b]pyridin-7-amine and 3-bromo-5-chloro-2-((1S,2S)-2-(methylamino)cyclohexyl)-N-(thiophen-2-ylmethyl)thieno[3,2-b]pyridin-7-amine [Compound 375]",30 to 300 nM,30 to 300 nM
"3-bromo-5-chloro-2-[(2R,3S)-3-aminotetrahydropyran-2-yl]-N-(2-thienylmethyl)thieno[3,2-b]pyridin-7-amine and 3-bromo-5-chloro-2-[(2S,3R)-3-aminotetrahydropyran-2-yl]-N-(2-thienylmethyl)thieno[3,2-b]pyridin-7-amine [Compound 20]",30 to 300 nM,30 to 300 nM
